Test results published in ChEMBL document CHEMBL5465560, “Selectivity Literature for EUbOPEN Chemogenomic Library” (2024).

Assays:
[1] = biological target: T1, Phosphatidylinositol 5-phosphate 4-kinase type-2 alpha (Homo sapiens) (UniProt P48426); experiment: Selectivity interaction (Kinase panel (KiNativ target engagement assay in Jurkat cells)) EUB0001635a PIP4K2A; type: cell-based; settings: Selectivity number of off-targets 0.0, Selectivity number of targets 233.0, Source Knowledge https://www.sciencedirect.com/science/article/pii/S2451945619300674?via%3Dihub, at 1 µM
T1 sequence (whole entry): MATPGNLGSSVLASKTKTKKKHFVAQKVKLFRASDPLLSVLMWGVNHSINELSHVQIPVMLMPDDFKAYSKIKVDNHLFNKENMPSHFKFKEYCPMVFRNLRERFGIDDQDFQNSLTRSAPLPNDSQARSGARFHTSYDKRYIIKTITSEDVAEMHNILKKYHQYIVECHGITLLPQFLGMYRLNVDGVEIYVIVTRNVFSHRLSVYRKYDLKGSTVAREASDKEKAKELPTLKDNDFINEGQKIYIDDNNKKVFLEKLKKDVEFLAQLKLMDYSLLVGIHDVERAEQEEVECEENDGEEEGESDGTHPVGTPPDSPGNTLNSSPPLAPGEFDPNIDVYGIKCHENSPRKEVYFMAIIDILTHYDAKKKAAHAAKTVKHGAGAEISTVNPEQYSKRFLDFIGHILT

[2] = biological target: Microtubule-associated serine/threonine-protein kinase 1 (Homo sapiens) (UniProt Q9Y2H9); experiment: Selectivity interaction (KinomeScan (DiscoverX)) EUB0000045b MAST1
[3] = biological target: Ribosomal protein S6 kinase alpha-3 (Homo sapiens, UniProt P51812); experiment: Selectivity interaction (KinomeScan (DiscoverX)) EUB0000695a RPS6KA3; settings: at 100 nM
[4] = biological target: T2, Serine/threonine-protein kinase TAO2 (Homo sapiens) (UniProt Q9UL54); experiment: Selectivity interaction (KinomeScan (DiscoverX)) EUB0000666a TAOK2; settings: at 10 µM
T2 sequence (whole entry): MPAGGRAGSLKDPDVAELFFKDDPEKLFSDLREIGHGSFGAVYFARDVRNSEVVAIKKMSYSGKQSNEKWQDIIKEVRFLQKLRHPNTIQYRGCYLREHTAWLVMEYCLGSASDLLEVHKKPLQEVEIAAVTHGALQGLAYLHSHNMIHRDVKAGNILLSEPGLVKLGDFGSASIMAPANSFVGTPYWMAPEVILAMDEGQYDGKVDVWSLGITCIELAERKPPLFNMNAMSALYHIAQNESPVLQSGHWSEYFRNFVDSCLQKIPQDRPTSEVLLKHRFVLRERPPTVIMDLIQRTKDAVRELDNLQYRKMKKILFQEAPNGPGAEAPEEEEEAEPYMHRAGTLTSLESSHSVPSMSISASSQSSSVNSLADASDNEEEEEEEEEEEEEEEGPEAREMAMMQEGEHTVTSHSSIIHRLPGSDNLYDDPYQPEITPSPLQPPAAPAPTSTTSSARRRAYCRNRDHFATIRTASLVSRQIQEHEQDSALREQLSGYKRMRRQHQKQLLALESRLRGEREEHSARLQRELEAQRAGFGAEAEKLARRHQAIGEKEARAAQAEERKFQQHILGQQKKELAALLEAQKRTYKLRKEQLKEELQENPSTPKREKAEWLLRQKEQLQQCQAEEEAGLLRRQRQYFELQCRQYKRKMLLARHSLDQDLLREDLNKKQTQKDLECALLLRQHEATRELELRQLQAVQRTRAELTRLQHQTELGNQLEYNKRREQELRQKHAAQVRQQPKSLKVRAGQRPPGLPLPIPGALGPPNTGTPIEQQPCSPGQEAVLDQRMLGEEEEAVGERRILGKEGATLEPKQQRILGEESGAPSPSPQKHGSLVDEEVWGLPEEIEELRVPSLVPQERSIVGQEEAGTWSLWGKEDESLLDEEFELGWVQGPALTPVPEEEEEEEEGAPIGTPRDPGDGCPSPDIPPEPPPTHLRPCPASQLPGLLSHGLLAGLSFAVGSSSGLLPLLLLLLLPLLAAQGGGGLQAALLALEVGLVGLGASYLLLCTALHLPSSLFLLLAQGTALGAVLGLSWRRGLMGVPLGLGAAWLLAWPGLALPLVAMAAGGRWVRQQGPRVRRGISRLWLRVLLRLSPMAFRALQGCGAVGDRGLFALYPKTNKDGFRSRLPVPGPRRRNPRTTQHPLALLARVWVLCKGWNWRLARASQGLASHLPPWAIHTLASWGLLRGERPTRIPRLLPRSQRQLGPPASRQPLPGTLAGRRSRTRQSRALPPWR

[5] = biological target: Serine/threonine-protein kinase mTOR (Homo sapiens, UniProt P42345); settings: at 10 µM
[6] = biological target: Epidermal growth factor receptor (Homo sapiens, UniProt P00533); experiment: Selectivity interaction (Enzyme panel (AstraZeneca, AlphaScreen, functional assay)) EUB0000621a EGFR
[7] = biological target: Homeodomain-interacting protein kinase 2 (Homo sapiens, UniProt Q9H2X6); experiment: Selectivity interaction (KinomeScan (DiscoverX)) EUB0001049a HIPK2; settings: at 1 µM
[8] = biological target: Protein kinase C delta type (Homo sapiens) (UniProt Q05655); experiment: Selectivity interaction (KinomeScan (DiscoverX)) EUB0001049a PRKCD; settings: at 1 µM
[9] = biological target: Cyclin-dependent kinase 4/cyclin D1 (Homo sapiens) (UniProt P11802+P24385); experiment: (§1) Selectivity interaction (KinomeScan (DiscoverX)) EUB0000607a CDK4; type: protein-complex assay; settings: at 10 µM
[10] = biological target: CDK4/Cyclin D3 (Homo sapiens) (UniProt P11802+P30281); experiment: as §1; type: protein-complex assay; settings: at 10 µM
[11] = biological target: Cyclin-dependent kinase 14 (Homo sapiens) (UniProt O94921); experiment: Selectivity interaction (KinomeScan (DiscoverX)) EUB0000607a CDK14; settings: at 10 µM
[12] = biological target: Serine/threonine-protein kinase B-raf (Homo sapiens) (UniProt P15056); experiment: Selectivity interaction (ActivX KiNativ screen (kinase selectivity in THP-1 cell lysates)) EUB0000639a BRAF; type: subcellular; settings: lysate
[13] = biological target: Serine/threonine-protein kinase PRP4 homolog (Homo sapiens) (UniProt Q13523); experiment: Selectivity interaction (Ambit KINOMEscan and KiNATiv profiling in Jurkat cells) EUB0000090b PRPF4; type: cell-based; settings: at 1 µM
[14] = biological target: Wee1-like protein kinase (Homo sapiens) (UniProt P30291); experiment: Selectivity interaction (Ambit KINOMEscan and KiNATiv profiling in Jurkat cells) EUB0000090b WEE1; type: cell-based; settings: at 1 µM

Sequence of Serine/threonine-protein kinase B-raf (Homo sapiens) (P15056 whole entry): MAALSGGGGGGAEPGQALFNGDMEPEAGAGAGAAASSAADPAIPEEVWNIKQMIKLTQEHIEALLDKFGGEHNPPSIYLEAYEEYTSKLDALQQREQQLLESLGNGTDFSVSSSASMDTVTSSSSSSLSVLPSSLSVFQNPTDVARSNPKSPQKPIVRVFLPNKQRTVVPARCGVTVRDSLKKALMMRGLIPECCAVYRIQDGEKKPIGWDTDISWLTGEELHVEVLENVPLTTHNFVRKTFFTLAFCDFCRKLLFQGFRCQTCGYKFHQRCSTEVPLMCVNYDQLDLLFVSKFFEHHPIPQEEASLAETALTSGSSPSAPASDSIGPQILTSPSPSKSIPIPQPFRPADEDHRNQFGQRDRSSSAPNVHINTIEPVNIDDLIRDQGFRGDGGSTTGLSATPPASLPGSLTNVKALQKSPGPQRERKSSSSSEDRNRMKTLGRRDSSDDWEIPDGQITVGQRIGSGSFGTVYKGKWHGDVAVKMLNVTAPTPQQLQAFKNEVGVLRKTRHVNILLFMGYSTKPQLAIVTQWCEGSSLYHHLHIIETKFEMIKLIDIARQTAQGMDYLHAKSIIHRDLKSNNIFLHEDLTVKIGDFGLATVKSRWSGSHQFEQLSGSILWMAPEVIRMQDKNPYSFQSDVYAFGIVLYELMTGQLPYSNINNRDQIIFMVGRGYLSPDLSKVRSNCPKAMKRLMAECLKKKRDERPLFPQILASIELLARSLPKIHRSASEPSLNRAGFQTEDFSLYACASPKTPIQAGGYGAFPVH
Sequence of Microtubule-associated serine/threonine-protein kinase 1 (Homo sapiens) (Q9Y2H9 whole entry, looked up): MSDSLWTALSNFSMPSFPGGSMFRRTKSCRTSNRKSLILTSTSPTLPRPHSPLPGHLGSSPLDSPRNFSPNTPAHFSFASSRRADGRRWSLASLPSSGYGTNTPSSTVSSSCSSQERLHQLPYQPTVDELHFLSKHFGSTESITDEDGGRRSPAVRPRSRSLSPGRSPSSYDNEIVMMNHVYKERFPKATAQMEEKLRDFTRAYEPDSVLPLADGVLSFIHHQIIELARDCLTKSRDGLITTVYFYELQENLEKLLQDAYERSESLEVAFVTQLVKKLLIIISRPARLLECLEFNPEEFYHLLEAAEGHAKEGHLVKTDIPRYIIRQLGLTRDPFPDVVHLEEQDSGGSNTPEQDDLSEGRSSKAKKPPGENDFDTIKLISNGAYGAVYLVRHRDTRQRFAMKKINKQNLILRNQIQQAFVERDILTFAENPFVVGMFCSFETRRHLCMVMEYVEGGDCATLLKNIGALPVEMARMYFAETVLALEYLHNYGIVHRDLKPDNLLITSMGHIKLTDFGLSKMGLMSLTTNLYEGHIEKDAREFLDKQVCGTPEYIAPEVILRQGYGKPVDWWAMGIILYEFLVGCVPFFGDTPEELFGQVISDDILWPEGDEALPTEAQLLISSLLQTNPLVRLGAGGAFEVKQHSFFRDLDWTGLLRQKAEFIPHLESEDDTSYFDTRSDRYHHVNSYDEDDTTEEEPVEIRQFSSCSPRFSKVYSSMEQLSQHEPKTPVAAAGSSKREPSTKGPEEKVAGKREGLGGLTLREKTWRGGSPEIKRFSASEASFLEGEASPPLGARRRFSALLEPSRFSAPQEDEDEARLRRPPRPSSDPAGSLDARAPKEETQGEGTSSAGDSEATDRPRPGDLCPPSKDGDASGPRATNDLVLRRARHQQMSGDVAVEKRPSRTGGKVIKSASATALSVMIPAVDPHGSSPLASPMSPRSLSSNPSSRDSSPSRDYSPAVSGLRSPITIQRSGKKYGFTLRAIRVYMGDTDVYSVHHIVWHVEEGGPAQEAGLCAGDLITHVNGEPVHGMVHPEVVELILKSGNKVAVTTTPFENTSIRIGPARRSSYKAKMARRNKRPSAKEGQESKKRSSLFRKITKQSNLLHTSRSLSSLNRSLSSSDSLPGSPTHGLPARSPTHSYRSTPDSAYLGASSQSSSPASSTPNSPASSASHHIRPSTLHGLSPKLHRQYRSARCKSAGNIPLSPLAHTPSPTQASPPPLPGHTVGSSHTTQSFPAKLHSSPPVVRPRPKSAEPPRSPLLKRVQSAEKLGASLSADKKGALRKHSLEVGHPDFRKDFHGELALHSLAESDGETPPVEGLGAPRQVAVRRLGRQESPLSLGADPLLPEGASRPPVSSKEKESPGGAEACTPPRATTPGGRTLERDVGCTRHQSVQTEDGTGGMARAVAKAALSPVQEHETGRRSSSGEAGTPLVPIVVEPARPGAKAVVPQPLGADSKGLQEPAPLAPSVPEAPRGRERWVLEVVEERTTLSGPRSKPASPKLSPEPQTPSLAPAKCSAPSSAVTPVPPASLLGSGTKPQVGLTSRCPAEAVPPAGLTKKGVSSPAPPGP
Sequence of Epidermal growth factor receptor (P00533 whole entry): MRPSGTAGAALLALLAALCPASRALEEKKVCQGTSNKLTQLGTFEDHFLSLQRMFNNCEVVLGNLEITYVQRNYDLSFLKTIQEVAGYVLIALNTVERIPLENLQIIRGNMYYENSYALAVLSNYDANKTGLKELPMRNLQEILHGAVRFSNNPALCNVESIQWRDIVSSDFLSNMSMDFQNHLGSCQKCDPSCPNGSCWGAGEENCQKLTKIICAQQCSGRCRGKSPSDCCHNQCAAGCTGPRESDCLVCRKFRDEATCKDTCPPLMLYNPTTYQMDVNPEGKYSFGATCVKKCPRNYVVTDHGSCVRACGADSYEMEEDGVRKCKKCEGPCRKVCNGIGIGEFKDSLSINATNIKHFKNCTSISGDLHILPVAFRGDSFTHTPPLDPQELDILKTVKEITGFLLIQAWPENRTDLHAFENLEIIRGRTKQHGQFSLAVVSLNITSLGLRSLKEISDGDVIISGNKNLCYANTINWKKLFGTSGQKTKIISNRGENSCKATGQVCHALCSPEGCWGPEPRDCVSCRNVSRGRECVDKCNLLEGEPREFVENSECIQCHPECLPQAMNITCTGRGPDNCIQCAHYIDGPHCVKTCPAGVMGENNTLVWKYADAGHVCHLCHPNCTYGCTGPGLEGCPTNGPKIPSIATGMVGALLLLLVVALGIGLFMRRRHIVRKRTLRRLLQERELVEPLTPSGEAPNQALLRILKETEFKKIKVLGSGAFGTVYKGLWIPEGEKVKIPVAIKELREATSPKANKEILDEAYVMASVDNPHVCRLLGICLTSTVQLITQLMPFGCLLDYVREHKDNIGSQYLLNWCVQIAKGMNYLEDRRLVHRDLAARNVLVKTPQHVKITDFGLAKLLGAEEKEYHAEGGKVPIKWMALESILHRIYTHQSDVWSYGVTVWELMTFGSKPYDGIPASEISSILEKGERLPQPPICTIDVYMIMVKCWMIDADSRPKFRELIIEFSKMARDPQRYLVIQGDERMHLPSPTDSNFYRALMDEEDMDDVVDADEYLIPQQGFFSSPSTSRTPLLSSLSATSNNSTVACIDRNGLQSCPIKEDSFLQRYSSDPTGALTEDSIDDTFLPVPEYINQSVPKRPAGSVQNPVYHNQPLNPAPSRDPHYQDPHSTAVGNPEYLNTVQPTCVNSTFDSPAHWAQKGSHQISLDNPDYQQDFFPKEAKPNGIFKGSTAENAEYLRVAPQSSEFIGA
Sequence of Ribosomal protein S6 kinase alpha-3 (P51812 whole entry): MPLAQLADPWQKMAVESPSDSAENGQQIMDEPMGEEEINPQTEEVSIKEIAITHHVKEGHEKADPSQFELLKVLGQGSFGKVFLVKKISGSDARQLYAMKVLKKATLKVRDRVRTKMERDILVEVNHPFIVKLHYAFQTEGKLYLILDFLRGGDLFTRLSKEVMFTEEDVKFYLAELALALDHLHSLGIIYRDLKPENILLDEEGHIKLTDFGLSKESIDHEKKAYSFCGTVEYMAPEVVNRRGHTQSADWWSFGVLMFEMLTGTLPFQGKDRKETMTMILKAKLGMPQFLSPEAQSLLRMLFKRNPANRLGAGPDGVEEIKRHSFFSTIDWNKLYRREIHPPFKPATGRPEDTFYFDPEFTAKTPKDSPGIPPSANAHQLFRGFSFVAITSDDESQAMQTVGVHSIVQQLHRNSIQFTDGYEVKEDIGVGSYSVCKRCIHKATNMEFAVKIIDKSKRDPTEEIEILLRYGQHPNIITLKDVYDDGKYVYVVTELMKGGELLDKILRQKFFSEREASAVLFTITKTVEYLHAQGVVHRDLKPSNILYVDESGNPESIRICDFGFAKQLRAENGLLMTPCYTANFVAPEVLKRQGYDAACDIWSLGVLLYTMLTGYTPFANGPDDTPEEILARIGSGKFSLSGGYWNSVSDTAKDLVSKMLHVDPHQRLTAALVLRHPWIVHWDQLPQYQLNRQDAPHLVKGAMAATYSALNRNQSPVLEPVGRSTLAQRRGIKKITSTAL
Sequence of Protein kinase C delta type (Homo sapiens) (Q05655 whole entry, looked up): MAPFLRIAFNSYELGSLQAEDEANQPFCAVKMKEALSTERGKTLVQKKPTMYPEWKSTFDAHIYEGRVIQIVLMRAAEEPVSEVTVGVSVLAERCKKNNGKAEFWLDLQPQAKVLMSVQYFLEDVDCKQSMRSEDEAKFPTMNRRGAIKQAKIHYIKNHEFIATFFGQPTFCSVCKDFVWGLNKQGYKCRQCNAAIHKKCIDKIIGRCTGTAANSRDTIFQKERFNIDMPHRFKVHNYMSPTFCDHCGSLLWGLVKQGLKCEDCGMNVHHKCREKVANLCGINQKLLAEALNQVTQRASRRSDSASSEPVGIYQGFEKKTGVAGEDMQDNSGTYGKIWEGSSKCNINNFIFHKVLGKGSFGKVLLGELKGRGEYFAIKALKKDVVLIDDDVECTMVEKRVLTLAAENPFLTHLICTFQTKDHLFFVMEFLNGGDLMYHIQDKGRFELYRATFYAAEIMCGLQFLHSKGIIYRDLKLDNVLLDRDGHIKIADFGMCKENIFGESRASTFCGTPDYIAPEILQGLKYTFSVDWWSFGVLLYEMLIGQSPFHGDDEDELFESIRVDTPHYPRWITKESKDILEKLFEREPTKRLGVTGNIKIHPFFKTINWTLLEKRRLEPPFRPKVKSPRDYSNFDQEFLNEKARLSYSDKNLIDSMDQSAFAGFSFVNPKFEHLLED

Compound: C=CC(=O)Nc1ccc(C(=O)Nc2[nH]nc3c2CN(C(=O)N[C@H](CN(C)C)c2ccccc2)C3(C)C)cc1
- % of engagement [1]: -3.2%

Compound: C=CC(=O)Nc1cc(-n2c(=O)ccc3cnc4ccc(-c5ccc(NS(C)(=O)=O)cc5)cc4c32)ccc1C
- % of control ([2]; at 1 µM): 100%
- % of control ([2]; at 10 µM): 94%

Compound: Cc1cc(F)c(C(=O)Nc2cccc(-c3nncn3C(C)C)n2)cc1-n1cnc(C2CC2)c1
- % of control [3]: 98%

Compound: O=C(NOC[C@H](O)CO)c1ccc(F)c(F)c1Nc1ccc(I)cc1F
- % of control [4]: 100%

Compound: Cc1cc([C@@H](C)Nc2ccccc2C(=O)O)c2nc(N3CCOCC3)cc(=O)n2c1 [AZD-6482]
- % of control [5]: 11%
- IC50 [6]: > 298 µM

Compound: COc1cc(Nc2nc(C)cc(-c3cnn4nc(OC)ccc34)n2)cc(C(F)(F)F)c1
- % of control [7]: 94%
- % of control [8]: 97%

Compound: CNC(=O)Nc1ccc(-c2nc(N3CC4CCC(C3)O4)c3cnn(C4CCC5(CC4)OCCO5)c3n2)cc1
- % of control [9]: 90%
- % of control [10]: 92%
- % of control [11]: 94%

Compound: CC[C@@H]1[C@H](F)C(=O)N[C@@H]1COc1nccc2cc(C(N)=O)c(OC)cc12 [ZIMLOVISERTIB]
- % of inhibition ([12]; at 0.01 µM): 7.3%
- % of inhibition ([12]; at 0.04 µM): 15.4%
- % of inhibition ([12]; at 0.2 µM): -0.2%
- % of inhibition ([12]; at 1 µM): -0.4%
- % of inhibition ([12]; at 5 µM): -15.5%

Compound: CN(C)C/C=C/C(=O)Nc1ccc(C(=O)N2CCCC(Nc3ncc(Cl)c(-c4c[nH]c5ccccc45)n3)C2)cc1 (centres undefined)
- % of control [13]: 74%
- % of control [14]: 77%
